ChEMBL document CHEMBL1201862, “PubChem BioAssay data set” (2004)
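These data come from cells grown in 96-well plates and exposed to compound for 48 hours at five concentrations. GI50 = concentration required for 50% inhibition of growth.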 Active and inactive are the calls of the source. No stated cut-off is given here; in the data, active = GI50 up to about 1.1 µM and inactive = higher.

Columns and labels:
Test in all cases: NCI anticancer screen, dose series, 48 h
[1] = system: UACC-257
[2] = system: LXFL 529
[3] = system: M19-MEL
[4] = system: HOP-18
[5] = system: HOP-92
[6] = system: DMS-114
[7] = system: CCRF-CEM
[8] = system: SK-MEL-28
[9] = system: A549
[10] = system: ACHN
[11] = system: EKVX
[12] = system: NCI-H226
[13] = system: SW-620
[14] = system: Malme-3M
[15] = system: SK-MEL-2
[16] = system: LOX IMVI
[17] = system: 786-0
[18] = system: HCT-15
[19] = system: NCI-H460
[20] = system: SNB-19
[21] = system: CAKI-1
[22] = system: DLD-1
[23] = system: NCI-H522
[24] = system: RXF 631
[25] = system: SN12C
[26] = system: HCC 2998
[27] = system: OVCAR-4
[28] = system: KM12
[29] = system: HT-29
[30] = system: DMS-273
[31] = system: UACC-62
[32] = system: SNB-75
[33] = system: RXF 393
[34] = system: UO-31
[35] = system: OVCAR-5
[36] = system: TK-10
[37] = system: U-251
[38] = system: NCI-H23
[39] = system: HCT-116
[40] = system: SK-OV-3
[41] = system: SF-268
[42] = system: RPMI-8226
[43] = system: COLO 205
[44] = system: IGROV-1
[45] = system: A498
[46] = system: M14
[47] = system: OVCAR-8
[48] = system: K562
[49] = system: SNB-78
[50] = system: KM-20L2
[51] = system: SK-MEL-5
[52] = system: SF-295
[53] = system: MOLT-4
[54] = system: SF-539
[55] = system: OVCAR-3
[56] = system: XF498
[57] = system: HOP-62
[58] = system: HL-60
[59] = system: SR

O=S1(=O)CS(=O)(=O)OCCCCCO1
GI50 [1]: > 100 µM (inactive) | GI50 [2]: > 100 µM (inactive) | GI50 [3]: > 100 µM (inactive) | GI50 [4]: > 100 µM (inactive) | GI50 [5]: > 100 µM (inactive) | GI50 [6]: > 100 µM (inactive) | GI50 [7]: > 100 µM (inactive) | GI50 [8]: > 100 µM (inactive) | GI50 [9]: > 100 µM (inactive) | GI50 [10]: > 100 µM (inactive) | GI50 [11]: > 100 µM (inactive) | GI50 [12]: > 100 µM (inactive) | GI50 [13]: > 100 µM (inactive) | GI50 [14]: > 100 µM (inactive) | GI50 [15]: > 100 µM (inactive) | GI50 [16]: > 100 µM (inactive) | GI50 [17]: > 100 µM (inactive) | GI50 [18]: > 100 µM | GI50 [19]: > 100 µM (inactive) | GI50 [20]: > 100 µM (inactive) | GI50 [21]: > 100 µM (inactive) | GI50 [22]: > 100 µM (inactive) | GI50 [23]: > 100 µM (inactive) | GI50 [24]: > 100 µM (inactive) | GI50 [25]: > 100 µM (inactive) | GI50 [26]: > 100 µM (inactive) | GI50 [27]: > 100 µM (inactive) | GI50 [28]: > 100 µM (inactive) | GI50 [29]: > 100 µM (inactive) | GI50 [30]: > 100 µM (inactive) | GI50 [31]: > 100 µM (inactive) | GI50 [32]: > 100 µM (inactive) | GI50 [33]: > 100 µM (inactive) | GI50 [34]: > 100 µM (inactive) | GI50 [35]: > 100 µM (inactive) | GI50 [36]: > 100 µM (inactive) | GI50 [37]: > 100 µM (inactive) | GI50 [38]: > 100 µM (inactive) | GI50 [39]: > 100 µM (inactive) | GI50 [40]: > 100 µM (inactive) | GI50 [41]: > 100 µM (inactive) | GI50 [42]: > 100 µM (inactive) | GI50 [43]: > 100 µM (inactive) | GI50 [44]: > 100 µM (inactive) | GI50 [45]: > 100 µM (inactive) | GI50 [46]: > 100 µM (inactive) | GI50 [47]: > 100 µM (inactive) | GI50 [48]: > 100 µM (inactive) | GI50 [49]: > 100 µM (inactive) | GI50 [50]: > 100 µM (inactive)

Cc1ccc(NC(=O)CCc2nnc(N)o2)cc1
GI50 [1]: > 100 µM (inactive) | GI50 [2]: > 100 µM (inactive) | GI50 [3]: > 100 µM (inactive) | GI50 [5]: > 100 µM (inactive) | GI50 [6]: > 100 µM (inactive) | GI50 [7]: > 100 µM (inactive) | GI50 [8]: > 100 µM (inactive) | GI50 [9]: > 100 µM (inactive) | GI50 [10]: > 100 µM (inactive) | GI50 [11]: > 100 µM (inactive) | GI50 [12]: > 100 µM (inactive) | GI50 [13]: > 100 µM (inactive) | GI50 [14]: > 100 µM (inactive) | GI50 [15]: > 100 µM (inactive) | GI50 [16]: > 100 µM (inactive) | GI50 [51]: > 100 µM (inactive) | GI50 [17]: > 100 µM (inactive) | GI50 [18]: > 100 µM | GI50 [19]: > 100 µM (inactive) | GI50 [20]: > 100 µM (inactive) | GI50 [21]: > 100 µM (inactive) | GI50 [22]: > 100 µM (inactive) | GI50 [52]: > 100 µM (inactive) | GI50 [23]: > 100 µM (inactive) | GI50 [24]: > 31.6 µM (inactive) | GI50 [53]: > 100 µM (inactive) | GI50 [25]: > 100 µM (inactive) | GI50 [26]: > 100 µM (inactive) | GI50 [27]: > 100 µM (inactive) | GI50 [28]: > 100 µM (inactive) | GI50 [54]: > 100 µM (inactive) | GI50 [29]: > 100 µM (inactive) | GI50 [30]: > 100 µM (inactive) | GI50 [31]: > 100 µM (inactive) | GI50 [32]: > 100 µM (inactive) | GI50 [33]: > 100 µM (inactive) | GI50 [34]: > 100 µM (inactive) | GI50 [35]: > 100 µM (inactive) | GI50 [36]: > 100 µM (inactive) | GI50 [55]: > 100 µM (inactive) | GI50 [37]: > 100 µM (inactive) | GI50 [56]: > 100 µM (inactive) | GI50 [38]: > 100 µM (inactive) | GI50 [39]: > 100 µM (inactive) | GI50 [40]: > 100 µM (inactive) | GI50 [41]: > 100 µM (inactive) | GI50 [42]: > 100 µM (inactive) | GI50 [43]: > 100 µM (inactive) | GI50 [44]: > 100 µM (inactive) | GI50 [57]: > 100 µM (inactive) | GI50 [58]: > 67.3 µM (inactive) | GI50 [45]: > 100 µM (inactive) | GI50 [46]: > 100 µM (inactive) | GI50 [47]: > 100 µM (inactive) | GI50 [48]: > 75.7 µM (inactive) | GI50 [49]: > 100 µM (inactive) | GI50 [50]: > 100 µM (inactive)

O=C(O)CCSC(=O)Nc1ccc(/N=N/c2ccccc2)cc1
GI50 [1]: > 100 µM (inactive) | GI50 [2]: 61.1 µM (inactive) | GI50 [4]: > 100 µM (inactive) | GI50 [5]: > 100 µM (inactive) | GI50 [6]: 61.8 µM (inactive) | GI50 [7]: 62.5 µM (inactive) | GI50 [8]: > 100 µM (inactive) | GI50 [9]: > 100 µM (inactive) | GI50 [10]: 43.6 µM (inactive) | GI50 [11]: 74 µM (inactive) | GI50 [12]: > 100 µM (inactive) | GI50 [13]: > 100 µM (inactive) | GI50 [14]: > 100 µM (inactive) | GI50 [16]: > 100 µM (inactive) | GI50 [51]: > 100 µM (inactive) | GI50 [17]: > 100 µM (inactive) | GI50 [18]: > 100 µM | GI50 [19]: > 100 µM (inactive) | GI50 [20]: > 100 µM (inactive) | GI50 [21]: > 100 µM (inactive) | GI50 [22]: > 100 µM (inactive) | GI50 [52]: 64 µM (inactive) | GI50 [24]: > 100 µM (inactive) | GI50 [59]: 37.9 µM (inactive) | GI50 [53]: 30.2 µM (inactive) | GI50 [25]: > 100 µM (inactive) | GI50 [26]: > 100 µM (inactive) | GI50 [27]: 95.1 µM (inactive) | GI50 [28]: > 100 µM (inactive) | GI50 [54]: > 100 µM (inactive) | GI50 [29]: > 100 µM (inactive) | GI50 [30]: > 100 µM (inactive) | GI50 [31]: 59.4 µM (inactive) | GI50 [32]: > 100 µM (inactive) | GI50 [33]: > 100 µM (inactive) | GI50 [34]: 55.3 µM (inactive) | GI50 [35]: > 100 µM (inactive) | GI50 [36]: > 100 µM (inactive) | GI50 [55]: > 100 µM (inactive) | GI50 [37]: 64.6 µM (inactive) | GI50 [56]: > 100 µM (inactive) | GI50 [38]: > 100 µM (inactive) | GI50 [39]: > 100 µM (inactive) | GI50 [40]: > 100 µM (inactive) | GI50 [41]: > 100 µM (inactive) | GI50 [42]: > 100 µM (inactive) | GI50 [43]: > 100 µM (inactive) | GI50 [44]: 92.9 µM (inactive) | GI50 [57]: > 100 µM (inactive) | GI50 [58]: 36.5 µM (inactive) | GI50 [45]: 69.5 µM (inactive) | GI50 [46]: > 100 µM (inactive) | GI50 [47]: 61.1 µM (inactive) | GI50 [48]: 80.5 µM (inactive) | GI50 [49]: > 100 µM (inactive) | GI50 [50]: > 100 µM (inactive)

CN1C(=O)c2cccc3c([N+](=O)[O-])ccc(c23)C1=O
GI50 [1]: 9.53 µM (inactive) | GI50 [2]: 1.46 µM (inactive) | GI50 [3]: 10.4 µM (inactive) | GI50 [4]: 17.1 µM (inactive) | GI50 [5]: 6.52 µM (inactive) | GI50 [6]: 4.1 µM (inactive) | GI50 [7]: 7.24 µM (inactive) | GI50 [8]: 18.8 µM (inactive) | GI50 [9]: 12.7 µM (inactive) | GI50 [10]: 10.1 µM (inactive) | GI50 [11]: 13.7 µM (inactive) | GI50 [12]: 1.56 µM (inactive) | GI50 [13]: 2.43 µM (inactive) | GI50 [14]: 16.2 µM (inactive) | GI50 [15]: 10.8 µM (inactive) | GI50 [16]: 6.12 µM (inactive) | GI50 [51]: 18.3 µM (inactive) | GI50 [17]: 8.85 µM (inactive) | GI50 [18]: 2.84 µM | GI50 [19]: 2.56 µM (inactive) | GI50 [20]: 14.2 µM (inactive) | GI50 [21]: 2.45 µM (inactive) | GI50 [22]: 2.82 µM (inactive) | GI50 [52]: 14.5 µM (inactive) | GI50 [23]: 1.36 µM (inactive) | GI50 [24]: 2.58 µM (inactive) | GI50 [59]: 3.25 µM (inactive) | GI50 [53]: 5.55 µM (inactive) | GI50 [25]: 12.4 µM (inactive) | GI50 [26]: 6 µM (inactive) | GI50 [27]: 13 µM (inactive) | GI50 [28]: 4.94 µM (inactive) | GI50 [54]: 13.2 µM (inactive) | GI50 [30]: 4.23 µM (inactive) | GI50 [31]: 1.77 µM (inactive) | GI50 [32]: 12.3 µM (inactive) | GI50 [33]: 3.1 µM (inactive) | GI50 [34]: 13.7 µM (inactive) | GI50 [35]: 3.5 µM (inactive) | GI50 [36]: 3.86 µM (inactive) | GI50 [55]: 3.19 µM (inactive) | GI50 [37]: 3.7 µM (inactive) | GI50 [38]: 11.9 µM (inactive) | GI50 [39]: 6.52 µM (inactive) | GI50 [40]: 14.7 µM (inactive) | GI50 [41]: 9.68 µM (inactive) | GI50 [43]: 7.26 µM (inactive) | GI50 [44]: 3.49 µM (inactive) | GI50 [57]: 12.1 µM (inactive) | GI50 [45]: 2.65 µM (inactive) | GI50 [46]: 11.1 µM (inactive) | GI50 [47]: 6.01 µM (inactive) | GI50 [48]: 4.1 µM (inactive) | GI50 [49]: 14 µM (inactive) | GI50 [50]: 5.7 µM (inactive)
